Tested on: 138582-337-R-J1-PDC complex spheroid viability
Experiment: Anticancer human tumor 138582-337-R-J1-PDC patient-derived Merkel cell tumor cell line growth inhibition
Conditions: for IC50: curve of first compound; for viability, T/C: stronger effect = lower value
Excerpt: Multicellular complex tumor spheroid response to LSD1 Inhibitor Iadademstat in combination with a variety of drugs and investigational agents in selected tumor cell lines
The current study was undertaken to assess response to LSD1 inhibitors in combination with standard-of-care drugs and investigational agents in solid tumor complex spheroid models as well as in the K-562 leukemia. Complex spheroids include a stromal component modeled by human endothelial cells (HUVEC) and fibroblasts modeled by human mesenchymal stem cells (MSCs). The concentration ranges selected for each drug and investigational agent were based upon clinically achievable concentrations if the clinical Cmax of the agent was known.
Compounds. The drugs and investigational agents used in this study are listed on Table 1. All of the agents used, including staurosporine (NSC755774) and gemcitabine (NSC613327), were obtained from the Developmental Therapeutics Program, NCI. FDA-approved anticancer drugs are available from the NCI at http://dtp.nci.nih.gov/branches/dscb/oncology_drugset_explanation.html. Drugs and investigational agents were >95% pure by proton nuclear magnetic resonance (NMR) and liquid chromatography/mass spectrometry (LC/MS). Stock solutions were prepared at 400x in DMSO, stored at -70 degrees C, and diluted in fresh medium prior to their use. The final concentration of DMSO in cell culture wells never exceeded 0.25% (v/v). The FDA-approved anticancer drug set is available from the Developmental Therapeutics Program at https://dtp.cancer.gov/organization/dscb/obtaining/available_plates.htm. All drugs and investigational agents were tested over a range starting from a high concentration at or near the clinical Cmax and decreasing in half-log increments. If the clinical Cmax for an agent had not been determined, the highest concentration tested was 10 microM.
Cell Lines. The patient-derived cancer cell (PDC) lines: 292921-168-R-J2-PDC, K24384-001-R-PDC, and 521955-158-R2-J5-PDC pancreatic carcinomas, 556581-035-R-J1 ovarian carcinoma, 324938-238-R-J1-PDC, 855422-203-R-J1-PDC and 883617-216-R-J1-PDC urothelial bladder carcinomas, 743489-274-T-PDC renal cell carcinoma, 138582-R-J1 Merkel cell tumor, K60290-347-R-J1 and K57222-313-R-J1-PDC glioblastomas, 653999-131-R-J2-PDC, LG0703-F948-PDC, and 349418-098-R-PDC non-small cell lung carcinomas, 885512-296-R-J2-PDC, 171881-019-R-J1-PDC breast carcinomas and 186277-243-T-J2-PDC and 233499-124-R-J2-PDC colon carcinomas were obtained from the NCI Patient-Derived Models Repository (PDMR, https://pdmr.cancer.gov). The established cell lines NCI/ADR-RES (RRID:CVCL_14520 and OVCAR-5 (RRID:CVCL_1628) ovarian carcinomas, 786-O (RRID:CVCL_1051) and A498 (RRID:CVCL_A498) renal cell carcinoma, NCI-H211 (ATCC, cat. CRL-5824; RRID:CVCL_1529), NCI-H196 (ATCC, cat. CRL-5823, RRID:CVCL_1509), SW 1271 (ATCC, cat. CRL-2177, RRID:CVCL_1716) and NCI-H1876 (ATCC, cat. CRL-5902, RRID:CVCL_1503) small cell lung carcinomas, MDA-MB-231 (RRID:CVCL_0062) and MDA-MB-468 (RRID:CVCL_0419)breast carcinomas (10-12). Pooled donor human umbilical vein endothelial cells (HUVEC, Lonza, cat. CC-2519) and human mesenchymal stem cells (hMSC, Lonza, cat. PT-2501) were purchased from Lonza (Walkersville, MD).
Cell Culture. All cells were maintained in an incubator at 37 degrees C and 5% CO2 with 95% humidity. The PDC lines were cultured according to standard operating procedures established by the NCI PDMR (https://pdmr.cancer.gov). Briefly all PDCs were thawed and cultured in Matrigel-coated flasks prepared with a working solution of 1X Ham's F-12 nutrient mix, without supplementation (Invitrogen, Waltham, MA, cat. 11765054), 100 U/mL penicillin-streptomycin (Invitrogen, cat. 15140122), and 2.5% Matrigel (Corning Inc., Corning, NY, cat. 354248) for the first three passages. […]
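Further: spheroids exposed to agents for 7 days.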
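Wherever viability, T/C is given: 100% = DMSO vehicle control viability.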

Structure (SMILES): CC[C@@]1(O)C(=O)OCc2c1cc1n(c2=O)Cc2cc3c(CN(C)C)c(O)ccc3nc2-1 + NC1CC1c1ccc(-c2cccc(O)c2)cc1
- IC50 (second compound 0.1 µM): > 100 nM
- IC50 (second compound 0.316 µM): > 100 nM
- IC50 (second compound 1 µM): > 100 nM
- IC50 (second compound 3.16 µM): > 100 nM
- IC50 (second compound 10 µM): > 100 nM
- viability, T/C (second compound 0.1 µM, first compound 0.000316 µM): 70.6%
- viability, T/C (second compound 0.1 µM, first compound 0.001 µM): 71.1%
- viability, T/C (second compound 0.1 µM, first compound 0.00316 µM): 63.5%
- viability, T/C (second compound 0.1 µM, first compound 0.01 µM): 80%
- viability, T/C (second compound 0.1 µM, first compound 0.0316 µM): 68.5%
- viability, T/C (second compound 0.1 µM, first compound 0.1 µM): 76.8%
- viability, T/C (second compound 0.316 µM, first compound 0.000316 µM): 80.2%
- viability, T/C (second compound 0.316 µM, first compound 0.001 µM): 70.7%
- viability, T/C (second compound 0.316 µM, first compound 0.00316 µM): 73.2%
- viability, T/C (second compound 0.316 µM, first compound 0.01 µM): 68.5%
- viability, T/C (second compound 0.316 µM, first compound 0.0316 µM): 66.6%
- viability, T/C (second compound 0.316 µM, first compound 0.1 µM): 75.9%
- viability, T/C (second compound 1 µM, first compound 0.000316 µM): 70.8%
- viability, T/C (second compound 1 µM, first compound 0.001 µM): 70.7%
- viability, T/C (second compound 1 µM, first compound 0.00316 µM): 80.2%
- viability, T/C (second compound 1 µM, first compound 0.01 µM): 71.1%
- viability, T/C (second compound 1 µM, first compound 0.0316 µM): 61.3%
- viability, T/C (second compound 1 µM, first compound 0.1 µM): 74.3%
- viability, T/C (second compound 3.16 µM, first compound 0.000316 µM): 75.6%
- viability, T/C (second compound 3.16 µM, first compound 0.001 µM): 74.8%
- viability, T/C (second compound 3.16 µM, first compound 0.00316 µM): 85.6%
- viability, T/C (second compound 3.16 µM, first compound 0.01 µM): 81.8%
- viability, T/C (second compound 3.16 µM, first compound 0.0316 µM): 66.4%
- viability, T/C (second compound 3.16 µM, first compound 0.1 µM): 66.4%
- viability, T/C (second compound 10 µM, first compound 0.000316 µM): 82.8%
- viability, T/C (second compound 10 µM, first compound 0.001 µM): 81.2%
- viability, T/C (second compound 10 µM, first compound 0.00316 µM): 100%
- viability, T/C (second compound 10 µM, first compound 0.01 µM): 90.3%
- viability, T/C (second compound 10 µM, first compound 0.0316 µM): 77.3%
- viability, T/C (second compound 10 µM, first compound 0.1 µM): 67.8%

Reference: PubChem BioAssay AID1918931 (Molecular Pharmacology Branch, DTP, NCI, 2023)
